Assays:
Aurora_A = Aurora_A (Homo sapiens, UniProt O14965); assay: In vitro kinase assay (Table 1); format: biochemical
Blk = Blk (Homo sapiens, UniProt P51451); assay: In vitro kinase assay (Table 1); format: biochemical
CDC2_cyclinB = CDC2_cyclinB (Homo sapiens, UniProt P06493); assay: In vitro kinase assay (Table 1); format: biochemical
Ck1 delta = Ck1 delta (Homo sapiens, UniProt P48730); assay: In vitro kinase assay (Table 1); format: biochemical
Ck2alpha1 = Ck2alpha1 (Homo sapiens, UniProt P68400); assay: In vitro kinase assay (Table 1); format: biochemical
Hyl = Hyl (Homo sapiens, UniProt P42679); assay: In vitro kinase assay (Table 1); format: biochemical
Lck = Lck (Homo sapiens, UniProt P06239); assay: In vitro kinase assay (Table 1); format: biochemical
mut_bRaf_V599E = mut_bRaf_V599E (Homo sapiens, UniProt P15056, V600E); assay: In vitro kinase assay (Table 1); format: biochemical
PAK2 = PAK2 (Homo sapiens, UniProt Q13177); assay: In vitro kinase assay (Table 1); format: biochemical
PAK4 = PAK4 (Homo sapiens, UniProt O96013); assay: In vitro kinase assay (Table 1); format: biochemical
PIK3Calpha = PIK3Calpha (Homo sapiens, UniProt P42336); assay: In vitro kinase assay (Table 1); format: biochemical
PKC_epsilon = PKC_epsilon (Homo sapiens, UniProt Q02156); assay: In vitro kinase assay (Table 1); format: biochemical
RAF1_4_CR = RAF1_4_CR (Homo sapiens, UniProt P04049); assay: In vitro kinase assay (Table 1); format: biochemical
ROS = ROS (Homo sapiens, UniProt P08922); assay: In vitro kinase assay (Table 1); format: biochemical
smMLCK = smMLCK (Homo sapiens, UniProt Q15746); assay: In vitro kinase assay (Table 1); format: biochemical
Syk = Syk (Homo sapiens, UniProt P43405); assay: In vitro kinase assay (Table 1); format: biochemical
TAK1 = TAK1 (Homo sapiens, UniProt O43318); assay: In vitro kinase assay (Table 1); format: biochemical
TRKC = TRKC (Homo sapiens, UniProt Q16288); assay: In vitro kinase assay (Table 1); format: biochemical
CSF_1_RK (h) = molecular target: T1, CSF_1_RK (h) (Homo sapiens, UniProt P07333); assay: Kinase profiling at Invitrogen; format: biochemical
T1 construct: purchased Invitrogen

PDGFRKalphaT674I (h) = molecular target: T2, PDGFRKalphaT674I (h) (Homo sapiens, UniProt P16234, T674I); assay: Kinase profiling at Invitrogen; format: biochemical
T2 construct: purchased Invitrogen

Met (h) = molecular target: T3, Met (h) (Homo sapiens, UniProt P08581); assay: Kinase profiling at Invitrogen; format: biochemical
T3 construct: purchased Invitrogen

BaF-Tel-IGF1R = molecular target: T4, BaF-Tel-IGF1R (Homo sapiens, UniProt P08069); assay: BaF3 proliferation assay; format: cell-based, murine
T4 construct: fused on or other part: P41212 (Transcription factor ETV6)

BaF-Tpr-MET = molecular target: T5, BaF-Tpr-MET (Homo sapiens, UniProt P08581); assay: BaF3 proliferation assay; format: cell-based, murine
T5 construct: expressed in transfected cells; host or cells: BaF3 (murine pro-B cell line); the other entry of the earlier key: TPR (P12270, Nucleoprotein TPR)

BaF-wt = assay: BaF3 proliferation assay; format: cell-based, murine; conditions: Mus musculus
BAF/Tel-EphA3-4.2/sACP = molecular target: T6, BAF/Tel-EphA3-4.2/sACP (Homo sapiens, UniProt P29320); assay: BaF3 proliferation assay; format: cell-based, murine
T6 construct: fused on or other part: P41212 (Transcription factor ETV6)

BAF/Tel-Tie1-Q2/sACP = molecular target: T7, BAF/Tel-Tie1-Q2/sACP (Homo sapiens, UniProt P35590); assay: BaF3 proliferation assay; format: cell-based, murine
T7 construct: fused on or other part: P41212 (Transcription factor ETV6)

BAF/Tel-FLT4-Q2/sACP = molecular target: T8, BAF/Tel-FLT4-Q2/sACP (Homo sapiens, UniProt P35916); assay: BaF3 proliferation assay; format: cell-based, murine
T8 construct: fused on or other part: P41212 (Transcription factor ETV6)

BAF/Tel-RET-Q1/sACP = molecular target: T9, BAF/Tel-RET-Q1/sACP (Homo sapiens, UniProt P07949); assay: BaF3 proliferation assay; format: cell-based, murine
T9 construct: fused on or other part: P41212 (Transcription factor ETV6)

[1] = molecular target: T10, BAF/Tel-IGF1R-FL-N.1/sACP (Homo sapiens, UniProt P08069); assay: BaF3 proliferation assay; format: cell-based, murine
T10 construct: BAF/Tel-IGF1R-FL- N.1/sACP; fused on or other part: P41212 (Transcription factor ETV6)

BAF/Tel-Ros-1.1/sACP = molecular target: T11, BAF/Tel-Ros-1.1/sACP (Homo sapiens, UniProt P08922); assay: BaF3 proliferation assay; format: cell-based, murine
T11 construct: fused on or other part: P41212 (Transcription factor ETV6)

BAF/Tel-Syk-1.1/sACP = molecular target: T12, BAF/Tel-Syk-1.1/sACP (Homo sapiens, UniProt P43405); assay: BaF3 proliferation assay; format: cell-based, murine
T12 construct: fused on or other part: P41212 (Transcription factor ETV6)

[2] = tested on: all other BaF3 cell lines; assay: BaF3 proliferation assays, all other cell lines; format: cell-based, murine; conditions: Mus musculus, read-out: Cellular EC50, all other BaF3 cell lines
MMP-9 = MMP-9 production by human monocytes (ELISA); format: cell-based; conditions: Monocyte
Procedure: (§1) Freshly isolated human PBMCs were used to purify human monocytes by negative selection using an indirect magnetic labeling system. […] Soluble factors such as cytokines (VEGFa, IL-6 etc.) and chemokines (IL-8, MCP-1, MMP9 etc.) in the culture supernatant were measured using commercial ELISA kits. The in vitro survival of human macrophages was measured using a commercially available CellTiter-Glo® system. Most observed results were repeated in multiple donors (n>5).

IL-8 = IL-8 production by human monocytes (ELISA); format: cell-based; conditions: Monocyte
Procedure: as §1

T3 sequence (P08581 25-1390): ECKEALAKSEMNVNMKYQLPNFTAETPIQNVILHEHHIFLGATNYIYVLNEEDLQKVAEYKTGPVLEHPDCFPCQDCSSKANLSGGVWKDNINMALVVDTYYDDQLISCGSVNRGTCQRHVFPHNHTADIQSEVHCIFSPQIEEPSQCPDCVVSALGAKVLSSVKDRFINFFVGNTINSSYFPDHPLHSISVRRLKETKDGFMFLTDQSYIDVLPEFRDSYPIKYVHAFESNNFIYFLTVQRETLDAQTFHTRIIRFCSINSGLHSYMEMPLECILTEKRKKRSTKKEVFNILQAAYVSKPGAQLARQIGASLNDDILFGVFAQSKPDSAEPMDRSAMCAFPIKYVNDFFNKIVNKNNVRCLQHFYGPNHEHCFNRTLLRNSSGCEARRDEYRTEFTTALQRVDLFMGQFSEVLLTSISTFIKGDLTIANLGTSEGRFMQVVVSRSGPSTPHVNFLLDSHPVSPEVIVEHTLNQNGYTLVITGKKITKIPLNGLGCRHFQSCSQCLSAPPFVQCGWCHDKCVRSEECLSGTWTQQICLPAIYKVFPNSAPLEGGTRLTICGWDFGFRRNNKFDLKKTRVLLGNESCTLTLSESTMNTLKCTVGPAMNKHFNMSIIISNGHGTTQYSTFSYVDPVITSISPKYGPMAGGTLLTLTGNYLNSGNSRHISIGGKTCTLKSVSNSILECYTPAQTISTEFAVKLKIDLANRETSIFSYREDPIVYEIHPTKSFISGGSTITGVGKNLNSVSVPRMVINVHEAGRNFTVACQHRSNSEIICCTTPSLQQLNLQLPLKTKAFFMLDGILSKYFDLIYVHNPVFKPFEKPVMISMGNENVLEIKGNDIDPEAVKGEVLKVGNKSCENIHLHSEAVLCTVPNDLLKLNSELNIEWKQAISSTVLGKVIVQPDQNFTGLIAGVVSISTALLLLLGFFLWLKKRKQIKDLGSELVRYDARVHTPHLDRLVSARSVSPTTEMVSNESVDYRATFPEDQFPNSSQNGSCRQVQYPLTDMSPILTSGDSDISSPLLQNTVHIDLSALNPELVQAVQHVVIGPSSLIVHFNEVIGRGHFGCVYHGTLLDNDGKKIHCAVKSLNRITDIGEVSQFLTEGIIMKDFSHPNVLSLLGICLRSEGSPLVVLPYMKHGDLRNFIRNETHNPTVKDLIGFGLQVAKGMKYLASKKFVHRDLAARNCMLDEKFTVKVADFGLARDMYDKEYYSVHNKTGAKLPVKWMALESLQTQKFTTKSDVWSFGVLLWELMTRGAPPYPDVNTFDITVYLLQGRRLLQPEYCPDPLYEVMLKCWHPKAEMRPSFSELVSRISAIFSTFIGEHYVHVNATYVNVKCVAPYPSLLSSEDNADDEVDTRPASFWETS
T1 sequence (P07333 20-972): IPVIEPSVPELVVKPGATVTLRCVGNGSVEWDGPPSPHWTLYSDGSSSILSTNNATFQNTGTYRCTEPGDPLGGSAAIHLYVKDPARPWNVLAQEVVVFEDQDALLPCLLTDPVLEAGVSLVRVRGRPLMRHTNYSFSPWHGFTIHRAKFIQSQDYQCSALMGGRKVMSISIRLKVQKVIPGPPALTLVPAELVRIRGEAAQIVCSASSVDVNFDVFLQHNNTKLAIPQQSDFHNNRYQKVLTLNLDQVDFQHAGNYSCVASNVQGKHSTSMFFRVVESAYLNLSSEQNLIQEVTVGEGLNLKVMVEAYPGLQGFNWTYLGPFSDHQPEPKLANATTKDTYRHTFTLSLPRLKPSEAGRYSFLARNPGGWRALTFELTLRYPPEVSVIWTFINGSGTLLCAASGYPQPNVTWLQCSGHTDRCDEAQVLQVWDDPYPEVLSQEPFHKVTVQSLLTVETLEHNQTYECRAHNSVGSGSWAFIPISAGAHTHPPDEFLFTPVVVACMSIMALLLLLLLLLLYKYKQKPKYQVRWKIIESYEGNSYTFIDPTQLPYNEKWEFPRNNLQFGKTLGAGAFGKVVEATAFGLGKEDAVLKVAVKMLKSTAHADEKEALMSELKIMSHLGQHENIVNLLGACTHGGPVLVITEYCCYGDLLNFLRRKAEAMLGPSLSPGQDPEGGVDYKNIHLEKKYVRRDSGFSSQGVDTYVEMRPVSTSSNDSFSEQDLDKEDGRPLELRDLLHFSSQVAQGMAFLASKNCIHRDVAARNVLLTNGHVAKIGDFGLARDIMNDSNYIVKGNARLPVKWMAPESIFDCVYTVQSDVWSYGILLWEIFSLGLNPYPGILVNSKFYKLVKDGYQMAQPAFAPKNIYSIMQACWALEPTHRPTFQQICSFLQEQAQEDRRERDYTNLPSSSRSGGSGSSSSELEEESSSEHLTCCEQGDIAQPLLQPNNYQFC
T2 sequence (P16234 550-1089 T674I limits assumed): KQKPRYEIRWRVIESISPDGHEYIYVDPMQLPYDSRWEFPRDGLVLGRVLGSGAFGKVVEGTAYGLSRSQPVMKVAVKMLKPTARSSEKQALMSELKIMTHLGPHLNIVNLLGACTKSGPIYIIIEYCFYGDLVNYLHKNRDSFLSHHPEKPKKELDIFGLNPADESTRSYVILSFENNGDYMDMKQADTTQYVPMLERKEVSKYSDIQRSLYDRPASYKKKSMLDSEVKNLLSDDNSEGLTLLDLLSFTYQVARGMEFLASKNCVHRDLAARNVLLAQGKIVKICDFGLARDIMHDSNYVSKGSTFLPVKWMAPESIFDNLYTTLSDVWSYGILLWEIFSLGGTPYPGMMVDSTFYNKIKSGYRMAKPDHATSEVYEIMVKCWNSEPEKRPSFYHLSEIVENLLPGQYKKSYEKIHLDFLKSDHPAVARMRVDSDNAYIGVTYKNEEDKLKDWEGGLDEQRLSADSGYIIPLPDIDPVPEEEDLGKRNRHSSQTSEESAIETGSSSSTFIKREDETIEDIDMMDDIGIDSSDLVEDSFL
Chain of PAK2 (Q13177 whole entry, species assumed): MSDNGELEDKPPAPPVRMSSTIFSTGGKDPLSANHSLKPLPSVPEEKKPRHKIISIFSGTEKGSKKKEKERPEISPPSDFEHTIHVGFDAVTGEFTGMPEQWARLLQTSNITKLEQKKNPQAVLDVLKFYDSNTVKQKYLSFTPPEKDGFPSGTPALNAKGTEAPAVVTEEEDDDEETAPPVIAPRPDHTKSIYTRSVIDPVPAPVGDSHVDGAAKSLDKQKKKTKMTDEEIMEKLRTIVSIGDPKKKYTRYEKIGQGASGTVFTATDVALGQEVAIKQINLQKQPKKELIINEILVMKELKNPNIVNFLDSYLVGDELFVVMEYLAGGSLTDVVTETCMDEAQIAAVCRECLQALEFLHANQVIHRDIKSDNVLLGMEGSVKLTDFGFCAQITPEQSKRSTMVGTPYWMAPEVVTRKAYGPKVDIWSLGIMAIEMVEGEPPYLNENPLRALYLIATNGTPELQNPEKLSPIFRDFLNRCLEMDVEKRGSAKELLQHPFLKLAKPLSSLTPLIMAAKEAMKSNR
T6 sequence (P29320 621-882 limits assumed, change not shown): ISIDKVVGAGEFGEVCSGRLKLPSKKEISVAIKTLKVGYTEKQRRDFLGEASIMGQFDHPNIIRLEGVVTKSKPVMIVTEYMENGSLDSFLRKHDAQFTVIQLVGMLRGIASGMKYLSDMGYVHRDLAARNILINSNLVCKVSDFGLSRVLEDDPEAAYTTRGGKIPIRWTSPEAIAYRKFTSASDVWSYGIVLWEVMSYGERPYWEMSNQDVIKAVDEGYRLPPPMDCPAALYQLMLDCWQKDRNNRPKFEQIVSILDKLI
Chain of Lck (P06239 whole entry, species assumed): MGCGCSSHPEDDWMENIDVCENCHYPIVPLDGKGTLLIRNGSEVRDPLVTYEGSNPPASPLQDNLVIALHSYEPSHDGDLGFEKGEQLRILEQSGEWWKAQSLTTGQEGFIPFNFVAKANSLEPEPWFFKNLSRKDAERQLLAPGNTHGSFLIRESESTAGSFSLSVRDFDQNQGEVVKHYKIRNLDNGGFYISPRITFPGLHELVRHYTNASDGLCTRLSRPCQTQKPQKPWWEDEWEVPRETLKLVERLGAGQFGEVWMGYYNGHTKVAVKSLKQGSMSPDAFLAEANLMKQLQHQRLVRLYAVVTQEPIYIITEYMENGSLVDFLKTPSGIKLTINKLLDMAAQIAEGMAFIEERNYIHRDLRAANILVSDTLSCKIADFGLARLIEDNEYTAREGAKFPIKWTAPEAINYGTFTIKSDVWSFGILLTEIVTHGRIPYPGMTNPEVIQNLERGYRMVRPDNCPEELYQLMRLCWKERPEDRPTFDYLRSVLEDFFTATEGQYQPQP
Chain of RAF1_4_CR (P04049 whole entry): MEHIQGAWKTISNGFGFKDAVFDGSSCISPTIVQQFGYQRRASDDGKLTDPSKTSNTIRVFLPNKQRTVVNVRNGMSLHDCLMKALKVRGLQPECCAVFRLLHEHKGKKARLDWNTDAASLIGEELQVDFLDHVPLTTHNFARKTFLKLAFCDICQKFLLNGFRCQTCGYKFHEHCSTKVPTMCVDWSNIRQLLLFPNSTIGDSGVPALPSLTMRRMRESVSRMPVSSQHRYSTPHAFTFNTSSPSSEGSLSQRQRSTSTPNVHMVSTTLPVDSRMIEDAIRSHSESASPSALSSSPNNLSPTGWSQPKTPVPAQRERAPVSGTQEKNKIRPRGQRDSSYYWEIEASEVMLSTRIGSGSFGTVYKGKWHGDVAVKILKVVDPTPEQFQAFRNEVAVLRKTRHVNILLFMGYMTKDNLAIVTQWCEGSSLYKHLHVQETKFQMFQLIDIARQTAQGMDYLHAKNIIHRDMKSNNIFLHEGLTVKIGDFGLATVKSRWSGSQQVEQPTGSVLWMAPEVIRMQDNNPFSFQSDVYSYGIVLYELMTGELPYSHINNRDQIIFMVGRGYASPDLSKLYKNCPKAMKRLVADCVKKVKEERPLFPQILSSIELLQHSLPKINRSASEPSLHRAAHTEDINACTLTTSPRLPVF

**Q.** How did the IC50 (Aurora_A) turn out when `CNC(=O)c1cc(Oc2ccc3nc(NC4CCCCC4O)sc3c2)ccn1` (stereo not shown) [Compound (I)] was run?
**A.** The IC50 was over 10 µM.

**Q.** What about the IC50 (Blk) of the same compound?
**A.** The IC50 was over 10 µM.

**Q.** And the IC50 (CDC2_cyclinB)?
**A.** Its IC50 is over 25 µM.

**Q.** What about the IC50 (Ck1 delta) of the same compound?
**A.** The IC50 was over 10 µM.

**Q.** And the IC50 (Ck2alpha1)?
**A.** Its IC50 is over 10 µM.

**Q.** What about the IC50 (Hyl) of the same compound?
**A.** Its IC50 is over 10 µM.

**Q.** What about the IC50 (Lck) of the same compound?
**A.** Its IC50 is over 10 µM.

**Q.** And the IC50 (mut_bRaf_V599E)?
**A.** Its IC50 is over 25 µM.

**Q.** And the IC50 (PAK2)?
**A.** Its IC50 is over 25 µM.

**Q.** And the IC50 (PAK4)?
**A.** The IC50 was over 10 µM.

**Q.** What about the IC50 (PIK3Calpha) of the same compound?
**A.** The IC50 was over 25 µM.

**Q.** What about the IC50 (PKC_epsilon) of the same compound?
**A.** Its IC50 is over 25 µM.

**Q.** And the IC50 (RAF1_4_CR)?
**A.** The IC50 was over 25 µM.

**Q.** And the IC50 (ROS)?
**A.** The IC50 was over 10 µM.

**Q.** What about the IC50 (smMLCK) of the same compound?
**A.** Its IC50 is over 10 µM.

**Q.** What about the IC50 (Syk) of the same compound?
**A.** The IC50 was over 10 µM.

**Q.** And the IC50 (TAK1)?
**A.** The IC50 was over 10 µM.

**Q.** And the IC50 (TRKC)?
**A.** The IC50 was over 10 µM.

**Q.** What about the inhibition at 0.5 µM (CSF_1_RK (h); read-out: % inhibition @ 0.5 μM, CSF_1_RK (h)) of the same compound?
**A.** The inhibition at 0.5 µM was 97%.

**Q.** And the inhibition at 5 µM (CSF_1_RK (h); read-out: % inhibition @ 5 μM, CSF_1_RK (h))?
**A.** Its inhibition at 5 µM is 99%.

**Q.** And the inhibition at 20 µM (CSF_1_RK (h); read-out: % inhibition @ 20 μM, CSF_1_RK (h))?
**A.** Its inhibition at 20 µM is 95%.

**Q.** And the inhibition at 0.5 µM (PDGFRKalphaT674I (h); read-out: % inhibition @ 0.5 μM, PDGFRKalphaT674I (h))?
**A.** Its inhibition at 0.5 µM is -3%.

**Q.** What about the inhibition at 5 µM (PDGFRKalphaT674I (h); read-out: % inhibition @ 5 μM, PDGFRKalphaT674I (h)) of the same compound?
**A.** Its inhibition at 5 µM is 2%.

**Q.** What about the inhibition at 20 µM (PDGFRKalphaT674I (h); read-out: % inhibition @ 20 μM, PDGFRKalphaT674I (h)) of the same compound?
**A.** Its inhibition at 20 µM is 45%.

**Q.** What about the inhibition at 0.5 µM (Met (h); read-out: % inhibition @ 0.5 μM, Met (h)) of the same compound?
**A.** Its inhibition at 0.5 µM is 0%.

**Q.** And the inhibition at 5 µM (Met (h); read-out: % inhibition @ 5 μM, Met (h))?
**A.** Its inhibition at 5 µM is 4%.

**Q.** What about the inhibition at 20 µM (Met (h); read-out: % inhibition @ 20 μM, Met (h)) of the same compound?
**A.** Its inhibition at 20 µM is 37%.

**Q.** And the EC50 (BaF-Tel-IGF1R)?
**A.** Its EC50 is over 10 µM.

**Q.** And the EC50 (BaF-Tpr-MET)?
**A.** The EC50 was over 10 µM.

**Q.** What about the EC50 (BaF-wt) of the same compound?
**A.** The EC50 was over 10 µM.

**Q.** And the EC50 (BAF/Tel-EphA3-4.2/sACP)?
**A.** Its EC50 is over 10 µM.

**Q.** And the EC50 (BAF/Tel-Tie1-Q2/sACP)?
**A.** Its EC50 is over 10 µM.

**Q.** What about the EC50 (BAF/Tel-FLT4-Q2/sACP) of the same compound?
**A.** Its EC50 is over 10 µM.

**Q.** And the EC50 (BAF/Tel-RET-Q1/sACP)?
**A.** The EC50 was over 10 µM.

**Q.** And the EC50 [1]?
**A.** The EC50 was over 10 µM.

**Q.** What about the EC50 (BAF/Tel-Ros-1.1/sACP) of the same compound?
**A.** The EC50 was over 10 µM.

**Q.** And the EC50 (BAF/Tel-Syk-1.1/sACP)?
**A.** Its EC50 is over 10 µM.

**Q.** And the EC50 [2]?
**A.** The EC50 was over 10 µM.

**Q.** What about the inhibition at 0.05 µM (MMP-9) of the same compound?
**A.** The inhibition at 0.05 µM was 30 to 50%.

**Q.** And the inhibition at 0.05 µM (IL-8)?
**A.** The inhibition at 0.05 µM was 7 to 90%.
